Measurements reported in patent publication US20040009988A1 (priority 2000, published 2004).

How the values were obtained:
human MTP = human MTP (Homo sapiens, UniProt P55157); test: human MTP activity assay (SPA, 3H-triolein transfer between liposomes); type: biochemical; settings: MTP-mediated 3H-triolein transfer from donor to acceptor liposomes, 25 min at 37° C., streptavidin-SPA beads
Description: The ability of the compounds of this invention to inhibit human MTP activity is measured by an in vitro assay where MTP tranfers 3H-triolein between phosphatidylcholine liposomes. The specificity of the compounds of the invention is established by comparing the effects on apoB-100 and apoprotein A-1 production. A specificity of at least 100 is preferred.
The human MTP activity assay was established using SPA technology. Donor liposomes were prepared with 3H-triolein and phosphatidylcholine, while acceptor liposomes contained biotinylated phosphatidylethanolamine and phosphatidylcholine. The MTP-mediated 3H-triolein transfer onto acceptor liposomes was allowed by a 25 min incubation at 37° C., and quantified by the addition of streptavidin-SPA beads.

Sequence of human MTP (P55157 19-894): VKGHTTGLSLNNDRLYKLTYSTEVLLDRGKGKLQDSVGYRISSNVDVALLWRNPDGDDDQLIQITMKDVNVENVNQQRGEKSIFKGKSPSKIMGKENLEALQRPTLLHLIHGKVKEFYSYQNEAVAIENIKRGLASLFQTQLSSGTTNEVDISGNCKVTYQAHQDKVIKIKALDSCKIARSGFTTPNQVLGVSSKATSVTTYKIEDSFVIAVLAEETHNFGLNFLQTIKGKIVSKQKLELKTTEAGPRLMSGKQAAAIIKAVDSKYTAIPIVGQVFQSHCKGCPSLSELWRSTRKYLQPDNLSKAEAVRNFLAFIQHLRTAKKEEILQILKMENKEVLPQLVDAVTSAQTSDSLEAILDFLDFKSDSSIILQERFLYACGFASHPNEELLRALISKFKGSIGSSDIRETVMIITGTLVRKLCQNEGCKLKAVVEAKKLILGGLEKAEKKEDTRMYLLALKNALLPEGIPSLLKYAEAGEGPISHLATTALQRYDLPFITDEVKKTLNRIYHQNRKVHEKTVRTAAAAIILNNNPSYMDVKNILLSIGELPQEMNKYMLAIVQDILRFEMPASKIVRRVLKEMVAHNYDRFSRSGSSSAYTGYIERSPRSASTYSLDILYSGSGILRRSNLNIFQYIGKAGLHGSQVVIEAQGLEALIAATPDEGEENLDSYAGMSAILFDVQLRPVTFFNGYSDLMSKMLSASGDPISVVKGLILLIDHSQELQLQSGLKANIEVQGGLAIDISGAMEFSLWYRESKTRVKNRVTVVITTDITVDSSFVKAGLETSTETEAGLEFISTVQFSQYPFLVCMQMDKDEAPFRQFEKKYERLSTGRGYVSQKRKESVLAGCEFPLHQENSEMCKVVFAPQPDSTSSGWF
Sequence of human MTP (P07237 18-508 partner): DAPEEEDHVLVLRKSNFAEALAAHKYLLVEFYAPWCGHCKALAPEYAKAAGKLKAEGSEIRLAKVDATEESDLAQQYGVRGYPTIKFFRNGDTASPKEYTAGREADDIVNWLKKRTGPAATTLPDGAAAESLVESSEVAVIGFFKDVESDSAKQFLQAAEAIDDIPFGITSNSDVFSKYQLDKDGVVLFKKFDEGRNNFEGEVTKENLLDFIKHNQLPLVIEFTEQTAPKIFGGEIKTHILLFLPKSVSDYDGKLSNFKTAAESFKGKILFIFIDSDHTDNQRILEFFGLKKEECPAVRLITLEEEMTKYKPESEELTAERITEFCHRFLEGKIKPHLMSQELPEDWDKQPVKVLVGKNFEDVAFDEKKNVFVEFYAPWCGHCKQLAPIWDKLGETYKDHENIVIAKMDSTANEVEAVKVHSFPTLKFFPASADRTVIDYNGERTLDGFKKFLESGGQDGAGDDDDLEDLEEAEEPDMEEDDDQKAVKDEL

Structure (SMILES)	melting point [°C]	IC50 (human MTP) [nM]
Cc1noc(-c2cccc(CN3CCN(c4ccc(NC(=O)c5cccc(C)c5-c5ccc(C(C)C)cc5)cn4)CC3)c2)n1 [Example 10, 4′-Isopropyl-6-methyl-biphenyl-2-carboxylic acid [2-(4-(3-(3-methyl-[1,2,4]oxadiazol-5-yl)-benzyl)-piperazin-1-yl)-pyridin-5-yl]-amide]	150 to 152	
CCCN1CCN(c2ccc(NC(=O)c3cccc(C(C)C)c3-c3ccc(C(C)C)cc3)cn2)CC1 [Example 23, 4′,6-Diisopropyl-biphenyl-2-carboxylic acid-[2-(4-propyl-piperazin-1-yl)-pyridin-5-yl]-amide]	126 to 128	
Cc1cccc(C(=O)Nc2ccc(N3CCN(Cc4cccc(C#N)c4)CC3)nc2)c1-c1ccc(C(F)(F)F)cc1 [Example 20, 6-Methyl-4′-trifluoromethyl-biphenyl-2-carboxylic acid [2-(4-(3-cyano-benzyl)-piperazin-1-yl)-pyridin-5-yl]-amide]	164 to 166	
Cc1ccc(C(=O)Nc2ccc(N3CCN(Cc4cccc(C#N)c4)CC3)nc2)c(-c2ccc(C(F)(F)F)cc2)c1 [Example 22, 5-Methyl-4′-trifluoromethyl-biphenyl-2-carboxylic acid [2-(4-(3-cyano-benzyl)-piperazin-1-yl)-pyridin-5-yl]-amide]	158 to 160	
Cc1cccc(C(=O)Nc2ccc(N3CCN(CC(N)=O)CC3)nc2)c1-c1ccc(C(F)(F)F)cc1 [Example 2, 6-Methyl-4′-trifluoromethyl-biphenyl-2-carboxylic acid [2-(4-carbamoylmethyl-piperazin-1-yl)-pyridin-5-yl]-amide]	180 to 181	
Cc1noc(-c2cccc(CN3CCN(c4ccc(NC(=O)c5ccccc5-c5ccc(C(F)(F)F)cc5)cn4)CC3)c2)n1 [Example 9, 4′-Trifluoromethyl-biphenyl-2-carboxylic acid [2-(4-(3-(3-methyl-[1,2,4]oxadiazol-5-yl)-benzyl)-piperazin-1-yl)-pyridin-5-yl]-amide]	192 to 194	
O=C(Nc1ccc(N2CCN(Cc3ccco3)CC2)nc1)c1ccccc1-c1ccc(C(F)(F)F)cc1 [Example 14, 4′-Trifluoromethyl-biphenyl-2-carboxylic acid [2-(4-(furan-2-ylmethyl)piperazin-1-yl)-pyridin-5-yl]-amide]	149	
Cc1noc(-c2cccc(CN3CCN(c4ccc(NC(=O)c5cccc(C(C)C)c5-c5ccc(C(C)C)cc5)cn4)CC3)c2)n1 [Example 13, 4′,6-Diisopropyl-biphenyl-2-carboxylic acid [2-(4-(3-(3-methyl-[1,2,4]oxadiazol-5-yl)-benzyl)-piperazin-1-yl)-pyridin-5-yl]-amide]	125	
C=C(C)N1CCN(c2ccc(NC(=O)c3cccc(C(C)C)c3-c3ccc(C(C)C)cc3)cn2)CC1 [Example 25, 4′,6-Diisopropyl-biphenyl-2-carboxylic acid-[2-(4-(propen-2-yl)-piperazin-1-yl)-pyridin-5-yl]-amide]	124	
CC(C)c1ccc(-c2c(C(=O)Nc3ccc(N4CCN(CC(N)=O)CC4)nc3)cccc2C(C)C)cc1 [Example 4, 4′,6-Diisopropyl-biphenyl-2-carboxylic acid [2-(4-carbamoylmethyl-piperazin-1-yl)-pyridin-5-yl]-amide]	169	
Cc1ccc(C(=O)Nc2ccc(N3CCN(Cc4cccc(C#N)c4)CC3)nc2)c(-c2ccc(C(C)C)cc2)c1 [Example 21, 4′-Isopropyl-5-methyl-biphenyl-2-carboxylic acid [2-(4-(3-cyano-benzyl)-piperazin-1-yl)-pyridin-5-yl]-amide]	161 to 163	
C=CCN1CCN(c2ccc(NC(=O)c3cccc(C(C)C)c3-c3ccc(C(C)C)cc3)cn2)CC1 [Example 25]		< 0.1
N#Cc1cccc(CN2CCN(c3ccc(NC(=O)c4ccccc4-c4ccc(C(F)(F)F)cc4)cn3)CC2)c1 [Example 17, 4′-Trifluoromethyl-biphenyl-2-carboxylic acid [2-(4-(3-cyano-benzyl)-piperazin-1-yl)-pyridin-5-yl]-amide]	168	
Cc1cccc(C(=O)Nc2ccc(N3CCN(CC(N)=O)CC3)nc2)c1-c1ccc(C(C)C)cc1 [Example 1, 4′-Isopropyl-6-methyl-biphenyl-2-carboxylic acid [2-(4-carbamoylmethyl-piperazin-1-yl)-pyridin-5-yl]-amide]	200 to 202	0.3
CC(C)c1ccc(-c2c(C(=O)Nc3ccc(N4CCN(C(C)C)CC4)nc3)cccc2C(C)C)cc1 [Example 26, 4′,6-Diisopropyl-biphenyl-2-carboxylic acid-[2-(4-(isopropyl)-piperazin-1-yl)-pyridin-5-yl]-amide]	136	
CC(C)c1ccc(-c2c(C(=O)Nc3ccc(N4CCN(C)CC4)nc3)cccc2C(C)C)cc1 [Example 24, 4′,6-Diisopropyl-biphenyl-2-carboxylic acid-[2-(4-methyl-piperazin-1-yl)-pyridin-5-yl]-amide]	152 to 154	

Continued, values first:

melting point [°C]	IC50 (human MTP) [nM]	Structure (SMILES)
197 to 199		COc1cccc(C(=O)Nc2ccc(N3CCN(Cc4ccc[nH]4)CC3)nc2)c1-c1ccc(C(C)C)cc1 [Example 7, 4′-Isopropyl-6-methoxy-biphenyl-2-carboxylic acid [2-(4-(1H-pyrrol-2-ylmethyl)piperazin-1-yl)-pyridin-5-yl]-amide]
210 to 212		COc1cccc(C(=O)Nc2ccc(N3CCN(CC(N)=O)CC3)nc2)c1-c1ccc(C(C)C)cc1 [Example 3, 4′-Isopropyl-6-methoxy-biphenyl-2-carboxylic acid [2-(4-carbamoylmethyl-piperazin-1-yl)-pyridin-5-yl]-amide]
151	0.16	CC(C)c1ccc(-c2c(C(=O)Nc3ccc(N4CCN(Cc5cccc(C#N)c5)CC4)nc3)cccc2C(C)C)cc1 [Example 15, 4′,6-Diisopropyl-biphenyl-2-carboxylic acid [2-(4-(3-cyano-benzyl)-piperazin-1-yl)-pyridin-5-yl]-amide]
142 to 144		Cc1cccc(C(=O)Nc2ccc(N3CCN(Cc4ccc[nH]4)CC3)nc2)c1-c1ccc(C(F)(F)F)cc1 [Example 6, 6-Methyl4′-trifluoromethyl-biphenyl-2-carboxylic acid [2-(4-(1H-pyrrol-2-ylmethyl)piperazin-1-yl)-pyridin-5-yl]-amide]
194 to 196		COc1cccc(C(=O)Nc2ccc(N3CCN(Cc4cccc(C#N)c4)CC3)nc2)c1-c1ccc(C(C)C)cc1 [Example 18, 4′-Isopropyl-6-methoxy-biphenyl-2-carboxylic acid [2-(4-(3-cyano-benzyl)-piperazin-1-yl)-pyridin-5-yl]-amide]
136 to 138		COc1cccc(C(=O)Nc2ccc(N3CCN(Cc4cccc(-c5nc(C)no5)c4)CC3)nc2)c1-c1ccc(C(C)C)cc1 [Example 12, 4′-Isopropyl-6-methoxy-biphenyl-2-carboxylic acid [2-(4-(3-(3-methyl-[1,2,4]oxadiazol-5-yl)-benzyl)-piperazin-1-yl)-pyridin-5-yl]-amide]
130	0.1	Cc1cccc(C(=O)Nc2ccc(N3CCN(Cc4ccc[nH]4)CC3)nc2)c1-c1ccc(C(C)C)cc1 [Example 5, 4′-Isopropyl-6-methyl-biphenyl-2-carboxylic acid [2-(4-(1H-pyrrol-2-ylmethyl)piperazin-1-yl)-pyridin-5-yl]-amide]
154 to 156		Cc1cccc(C(=O)Nc2ccc(N3CCN(Cc4cccc(C#N)c4)CC3)nc2)c1-c1ccc(C(C)C)cc1 [Example 19, 4′-Isopropyl-6-methyl-biphenyl-2-carboxylic acid [2-(4-(3-cyano-benzyl)-piperazin-1-yl)-pyridin-5-yl]-amide]
